This is an account of results in patent US20050164370A1 (priority 2003, published 2005).

SMILES strings stand for the structures. Where two headings read alike, the source gives them in different places.

What all share (format): cell-based, yeast
For assay [1], the system named is transformed cells TM182-CYC1-ADHIPT4. As to conditions: DOHLU+Glu, 30° C. for 24 hours. The method, then:
(§1) Each of the transformed cells TM182-CYC1-CYC1IPT4, TM182-CYC1-ADHIPT4, TM182-CYC1-CYC1IPT5, TM182-CYC1-ADHIPT5, TM182-CRE1-CYC1IPT4, and TM182-CRE1-ADHIPT5 obtained in Example 16 was inoculated in 200 mL of DOHLU+Gal culture medium, and was pre-cultured at 30° C. for 36 hours. The thus obtained culture solutions were diluted with DOHLU+Glu culture medium so that OD600 became 0.200, and then the diluted ones were further diluted with DOHLU+Glu culture medium at a dilution rate of 1/200 to obtain diluted pre-cultured solutions.
(§2) A 96-well assay plate was prepared by filling each well with 1 μL of a DMSO solution of an examinee substance (Abscisic acid or 6-Benzyl aminopurine). In this regard, it is to be noted that the DMSO solution of a examinee substance was prepared so that the concentration thereof became 200 ppm. Simultaneously, an assay plate was prepared by filling each well with 1 μL of DMSO as a blank section.
(§3) Each of the diluted pre-cultured solutions was added in a volume of 100 μL per each well of both of the assay plates, and was cultured at 30° C. for 24 hours. After incubation, the turbidity of each well was measured using a plate reader.
(§4) Each of the transformed cells TM182-CYC1-CYC1IPT4, TM182-CYC1-ADHIPT4, TM182-CYC1-CYC1IPT5, TM182-CYC1-ADHIPT5, TM182-CRE1-ADHIPT4, TM182-AHK2-CYC1IPT4, TM182-AHK2-CYC1IPT5 and TM182-AHK2-ADHIPT5 obtained in Example 16 was inoculated in 200 mL of DOHLU+Gal culture medium, and was pre-cultured at 30° C. for 36 hours. The thus obtained culture solutions were diluted with DOHLU+Glu culture medium so that OD600 became 0.200, and then the diluted ones were further diluted with DOHLU+Glu culture medium at a dilution rate of 1/200 to obtain diluted pre-cultured solutions.
as §3

For assay [2], the system named is transformed cells TM182-CYC1-CYC1IPT4. The following applies: DOHLU+Glu, 30° C. for 24 hours. As to the method:
as §1, §2, §3, §4, §3

Assay [3] relates to transformed cells TM182-CYC1-ADHIPT5. The assay can be described thus: Liquid culture of transformed cell TM182-CYC1-ADHIPT5 with examinee substance, absorbance. As to conditions: DOHLU+Glu, 30° C. for 24 hours. The method, then:
(§5) The thus obtained culture solutions were diluted with DOHLU+Glu culture medium so that OD600 became 0.200, and then the diluted ones were further diluted with DOHLU+Glu culture medium at a dilution rate of 1/200 to obtain diluted pre-cultured solutions.
as §2
(§6) Each of the diluted pre-cultured solutions was added in a volume of 100 μL per each well of both of the assay plates, and was cultured at 30° C. for 24 hours. After incubation, the turbidity of each well was measured using a plate reader. The absorbance (OD600) of each of the culture solutions of the transformed cells containing the examinee substance was shown in Table 3. […] Further, the growth speeds of the transformed cells TM182-CRE1-CYC1IPT4 and TM182-CRE1-ADHIPT5 in the culture medium to which 6-Benzyl aminopurine was added were faster than those in the culture medium to which only DMSO was added.
as §6, with “4.” for “3.”, “TM182-CRE1-ADHIPT4, TM182-AHK2-CYC1IPT4, TM182-AHK2-CYC1IPT5” for “TM182-CRE1-CYC1IPT4”, “TM182-AHK2-ADHIPT5” for “TM182-CRE1-ADHIPT5”

The test system of assay [4] is transformed cells TM182-CRE1-CYC1IPT4. The assay can be described thus: Liquid culture of transformed cell TM182-CRE1-CYC1IPT4 with examinee substance, absorbance. The following applies: Table 3, TM182-CRE1-CYC1-IPT4, 1 μL of 200 ppm DMSO solution per 100 μL, DOHLU+Glu, 30° C. for 24 hours. As to the method:
as §5, §2, §6

The subject of assay [5] is transformed cells TM182-CRE1-ADHIPT5. The following applies: Table 3, TM182-CRE1-ADH-IPT5, 1 μL of 200 ppm DMSO solution per 100 μL, DOHLU+Glu, 30° C. for 24 hours. As to the method: as §1, §2, §3
The test system of assay [6] is transformed cells TM182-CRE1-ADHIPT4. Kind of assay: Liquid culture of transformed cell TM182-CRE1-ADHIPT4 with examinee substance, absorbance. As to conditions: Table 4, TM182-CRE1-ADH-IPT4, 1 μL of 200 ppm DMSO solution per 100 μL, DOHLU+Glu, 30° C. for 24 hours. The method, then: as §5, §2
as §6, with “4.” for “3.”, “TM182-CRE1-ADHIPT4, TM182-AHK2-CYC1IPT4, TM182-AHK2-CYC1IPT5” for “TM182-CRE1-CYC1IPT4”, “TM182-AHK2-ADHIPT5” for “TM182-CRE1-ADHIPT5”

Assay [7] relates to transformed cells TM182-AHK2-CYC1IPT5. Kind of assay: Liquid culture of transformed cell TM182-AHK2-CYC1IPT5 with examinee substance, absorbance. As to conditions: Table 4, TM182-AHK2-CYC1-IPT5, 1 μL of 200 ppm DMSO solution per 100 μL, DOHLU+Glu, 30° C. for 24 hours. The method, then:
as §5, §2
as §6, with “4.” for “3.”, “TM182-CRE1-ADHIPT4, TM182-AHK2-CYC1IPT4, TM182-AHK2-CYC1IPT5” for “TM182-CRE1-CYC1IPT4”, “TM182-AHK2-ADHIPT5” for “TM182-CRE1-ADHIPT5”

Assay [8] concerns transformed cells TM182-AHK2-ADHIPT5. The assay can be described thus: Liquid culture of transformed cell TM182-AHK2-ADHIPT5 with examinee substance, absorbance. The following applies: Table 4, TM182-AHK2-ADH-IPT5, 1 μL of 200 ppm DMSO solution per 100 μL, DOHLU+Glu, 30° C. for 24 hours. The method, then:
as §5, §2
as §6, with “4.” for “3.”, “TM182-CRE1-ADHIPT4, TM182-AHK2-CYC1IPT4, TM182-AHK2-CYC1IPT5” for “TM182-CRE1-CYC1IPT4”, “TM182-AHK2-ADHIPT5” for “TM182-CRE1-ADHIPT5”

[9] abbreviates: Table 3, TM182-CYC1-ADH-IPT4, 1 μL of 200 ppm DMSO solution per 100 μL.
Where [10] appears, read: Table 4, TM182-CYC1-ADH-IPT4, 1 μL of 200 ppm DMSO solution per 100 μL.
Where [11] appears, read: Table 3, TM182-CYC1-CYC1-IPT4, 1 μL of 200 ppm DMSO solution per 100 μL.
Setting [12] is: Table 4, TM182-CYC1-CYC1-IPT4, 1 μL of 200 ppm DMSO solution per 100 μL.
Setting [13] is: Table 3, TM182-CYC1-ADH-IPT5, 1 μL of 200 ppm DMSO solution per 100 μL.
The mark [14] stands for this setting: Table 4, TM182-CYC1-ADH-IPT5, 1 μL of 200 ppm DMSO solution per 100 μL.

As to `CC1=CC(=O)CC(C)(C)[C@@]1(O)/C=C/C(C)=C\C(=O)O` [Compound A, Abscisic acid], the “absorbance (OD600) of the culture solution” value (shortened to “absorbance (OD600)”) is given as 0.040 in assay [1] (setting [9]); 0.035 in assay [1] (setting [10]); 0.042 in assay [2] (setting [11]); 0.035 in assay [2] (setting [12]); 0.043 in assay [3] (setting [13]); 0.035 in assay [3] (setting [14]). The “absorbance (OD600)” value in assay [4] turned out to be 0.102; in assay [5], 0.131; in assay [6], 0.045; in assay [7], 0.069; in assay [8], 0.297.

`c1ccc(CNc2ncnc3nc[nH]c23)cc1` [Compound B, 6-Benzyl aminopurine]: the “absorbance (OD600)” value was 0.041 in assay [1] (setting [9]); 0.034 in assay [1] (setting [10]); 0.042 in assay [2] (setting [11]); 0.034 in assay [2] (setting [12]); 0.043 in assay [3] (setting [13]); 0.035 in assay [3] (setting [14]). Moreover, the “absorbance (OD600)” value was found to be 0.260 in assay [4]; 0.293 in assay [5]; 0.058 in assay [6]; 0.430 in assay [7]; 0.427 in assay [8].
